The source of these data is the Bradley open melting point set (2014).

Values joined by “and” are separate entries in the source; they are usually repeats but may differ in a detail not shown here. Equal values may be shown once.

Regarding `CC(=O)[C@H]1CC[C@H]2[C@@H]3CCC4=CC(=O)CC[C@]4(C)[C@H]3CC[C@]12C` [progesterone], the melting point – broadly, the temperature, or range, at which the solid turns liquid – was determined as 126 °C.
Consider `O=C(O)[C@H]1CCCN1C(=O)OCc1ccccc1` [N-benzyloxycarbonyl-D-proline], for which the melting point came to 77 °C.
Regarding `CCOCCC(=O)OCC` [ethyl 3-ethoxypropionate], the melting point is -100 °C.
As for `O=C(O)[C@@H]1CCCN1` [L-Proline], the figure is 228 °C.
`Cc1ccccc1C(=O)O` [2-Methylbenzoic acid] returned a melting point of 105 °C.
`O=CCCc1ccccc1` [3-phenylpropionaldehyde]: the melting point is -42 °C.
On to `N#CCC(=O)c1ccccc1` [benzoylacetonitrile], for which the melting point amounted to 81 °C.
`O=C(O)c1ccsc1` [thiophene-3-carboxylic acid]: the melting point worked out at 139 °C.
With `CC(=O)O[C@@]12CO[C@@H]1C[C@H](O)[C@@]1(C)C(=O)[C@H](O)C3=C(C)[C@@H](OC(=O)[C@H](O)[C@@H](NC(=O)OC(C)(C)C)c4ccccc4)C[C@@](O)([C@@H](OC(=O)c4ccccc4)[C@H]21)C3(C)C` [Docetaxel] the figure was 232 °C; with `COc1cc(C(=O)OCc2cccc(COC(=O)c3cc(OC)c(OC)c(OC)c3)n2)cc(OC)c1OC` [pirozadil], 119 °C.
Take `Clc1cc(Cl)cc(Cl)c1` [1,3,5-trichlorobenzene]: the melting point came to 64 °C.
`CCCCCCCCOc1ccc(NC(=O)c2ccc(OC)cc2)cc1` [4-methoxy-N-[4-(octyloxy)phenyl]benzamide] returned a melting point of 153 °C.
With `C1CCCC1` [cyclopentane] the figure was -94 °C (2×) and -93.9 °C.
In turn, `NS(=O)(=O)c1cc2c(cc1Cl)NCNS2(=O)=O` [Hydrochlorothiazide] showed a melting point of 274 °C.
Take `NC(=S)N1CCCCC1` [piperidine-1-thiocarboxamide]: the melting point was 128 °C.
In the case of `Cc1c(C2(c3cc(C(C)C)c(O)c(Br)c3C)OS(=O)(=O)c3ccccc32)cc(C(C)C)c(O)c1Br` [bromothymol blue], the melting point stood at 201 °C.
On to `C[SiH](C)c1ccccc1` [dimethylphenylsilane], for which the melting point is -124 °C.
For `CC(C(=O)O)c1ccc(-c2ccccc2)c(F)c1` (configuration not stated) [flurbiprofen], the melting point is 111 °C (2×) and 115 °C and 110 °C.
`O=S(=O)(Cl)c1ccc(Br)cc1C(F)(F)F` [4-bromo-2-(trifluoromethyl)benzenesulfonyl chloride]: the melting point amounted to 56 °C.
Turning to `CCCCN(CCCC)CCCC` [N,N-Dibutylbutan-1-amine], the melting point was -70 °C.
As for `Sc1ccc(Br)cc1` [4-bromothiophenol], the melting point amounted to 75 °C.
Take `O=[N+]([O-])c1ccc(Cl)c(CO)c1` [2-chloro-5-nitrobenzyl alcohol]: the melting point is 77 °C.
With `NC(=O)c1cnccn1` [Pyrazinamide] the figure was 189 °C; with `COc1ccc(C(=O)Cc2ccccc2)cc1OC` [1-(3,4-Dimethoxyphenyl)-2-phenylethanone], 73 °C.
As for `CNc1ccc(Cl)cc1C(=O)c1ccccc1` [5-chloro-2-methylaminobenzophenone], the figure is 96 °C; as for `CC(COc1ccccc1)NC(C)C(O)c1ccc(O)cc1` (configuration not stated) [Isolait], 103 °C; as for `OB(O)c1c(F)cc(F)c(F)c1F` [2,3,4,6-tetrafluorobenzeneboronic acid], 127 °C.
`O=Cc1cc(Br)c(O)c(Br)c1` [3,5-dibromo-4-hydroxybenzaldehyde] gave a melting point of 182 °C.
For `S=C=Nc1cccc2ccccc12` [1-Isothiocyanatonaphthalene], the melting point is 58 °C.
With `COc1cc(/C=C/CO)ccc1O` [coniferyl alcohol] the figure was 76 °C.
`C(=N\c1ccccc1Nc1ccccc1/N=C/c1ccccc1)/c1ccccc1`: the melting point worked out at 103 °C.
Take `O=C(O)CCc1ccccc1` [3-phenylpropionic acid]: the melting point amounted to 49 °C.
